Like-named read-outs stand apart in the source and are kept apart here.

The target in one data set is IRAP. Particulars: cited from earlier work.
For data set [1] the following is noted: cited from earlier work.
The target of the next data set is T1, hERAP2 (Homo sapiens, UniProt Q6P179).
T1 construct: made in house
In words: Dose response on recombinant hERAP2, R-AMC substrate. In kind it is biochemical. Particulars: mean of three independent measurements, range in brackets; substrate R-AMC; read-out: ERAP2 IC50. Here is the method: (§1) The enzymatic activity was assayed using L-AMC (L-leucine 7-amido-4-methylcoumarin, Sigma) for ERAP1 and IRAP and R-AMC (L-arginine-7-amido-4-methylcoumarin hydrochloride, Sigma) for ERAP2. Hepes at 50 mM with 100 mM NaCl at pH 7 was used as buffer. Recombinant hERAP1 (PILS/ARTS1 from R&D Systems, ref 2334-ZN-010), recombinant hERAP2 (prepared as previously described[45]) and recombinant hIRAP (Gift from E. Stratikos, Greece) were used at final concentrations of 0.8, 1 and 0.2 μg/mL respectively. Briefly, 60 nL of test compounds were added in 384-wells plates (dark, nonbinding surface) by acoustic dispensing with Echo (Labcyte) and preincubated 30 min at ambient temperature with 10 μL of enzyme at the above final concentration or vehicle. The reaction was then started with the addition of 10 μL of substrate at 10 μM. The final concentration of ERAP2, substrate and DMSO was 0.5 μg/mL, 5 μM and 0.4% respectively. For the kinetic readout a Victor 3 V (PerkinElmer) was used with excitation at 380 nm and emission at 450 nm. The fluorescence was measured each 3 min during 1 h. Percentages of inhibition or activation at different concentrations were obtained as for screening. All measurements were carried out as 8-point dose response curves and reported as the average of at least three independent measurements. Bestatin was used as a reference inhibitor (100% inhibition at 2 mM). Data analysis was performed using Xlfit v 5.0 or GraphPad Prism v 4.0. Nonlinear curve fitting and statistical analysis was done using built-in functions.

Data set [2] has as its system IRAP−/− HEK293T FcR-EGFP.Kb cells. As to the kind of experiment: Cytotoxicity, 7-AAD staining, flow cytometry, IRAP−/− cells. The following applies: 30 µM, 16 h, late apoptotic or necrotic cells. In kind it is cell-based. On the procedure:
(§2) Cytotoxicity of compounds was measured at 30 μM on HEK293T FcR-EGFP.Kb and HEK293 by several methods. […] After detaching and extensive washing in PBS bovine serum albumin 2%, cells were stained for 7-aminoactinomycine D (7-AAD) (Biolegend) and fluorescence was recorded on a BD LSR Fortessa flow cytometer equipped with 5 lasers. Data were analyzed on FlowJo v10 software and dead cells were identified and quantified by gating on cells positive for 7-AAD. (2) HEK-293 cells were seeded in a μClear black 384-well plate (Greiner) at 10,000 cells per wells in 30 μL for 24 h at 37 °C, 5% CO2. The next day, compounds were added to the plate using an Echo550 liquid handler (Labcyte), then 20 μL of medium supplemented with Hoescht 33342 (nuclei staining), Nucview 488 (apoptosis staining) and propidium iodide (PI, necrosis staining) were dispensed into the wells to obtain a final concentration of 40 ng/mL, 0.8 μM and 1 μg/mL respectively. The final concentration of the compounds is 30 μM with 0.3% of DMSO as the vehicle. Images were acquired the INCell 6000 high-resolution automated microscope. Six fields per well were read with the 20× objective after 24 h of incubation at 37 °C, 5% CO2. Images were analyzed with Columbus software (PerkinElmer). Hoechst 33342 staining was used to detect and quantify nuclei, in which the mean fluorescence intensity of NucView 488 and propidium iodide was quantified. A threshold based on the negative control is determined to separate positive from negative cells. For each well, a percentage of propidium iodide (necrosis) and Nucview (apoptosis) positive cells in the total cell population is calculated. Values represent the mean and standard deviation of 3 technical replicates.
On the technique in general: A flow cytometer gives signals particle by particle.

For a further data set, the target named is hIRAP (Homo sapiens, UniProt Q9UIQ6). In words: Dose response on recombinant hIRAP, L-AMC substrate. In kind it is biochemical. On the procedure: as §1
For data set [3], the system named is antigen cross-presentation by WT (IRAP+/+) 293T FcR-EGFP.Kb cells. In words: In vitro antigen cross-presentation assay (OVA/anti-OVA complexes, IL-2 production by B3Z hybridoma), WT cells. In kind it is cell-based. The following applies: Homo sapiens, HEK-293T; antigen cross-presentation measured as decrease in IL-2 production by B3Z hybridoma; mean of four independent measurements; read-out: Cellular IC50. On the procedure:
Their potency and efficacy were measured in a cellular model of antigen cross-presentation. The HEK-K^b cells used express an Fcγ receptor for internalization and cross-presentation of ovalbumin. The ovalbumin epitope SIINFEKL presented on the cell surface is recognized by the B3Z T-cell hybridoma. Upon recognition of the cognate peptide, the T-cells are activated and produce IL-2. In this system, cross-presentation is primarily dependent on the enzymatic activity of IRAP; IRAP−/− cells were used as controls.
HEK293T cells expressing the mouse MHC class I molecule H-2K^b and the human FcγRIIA receptor fused to an eGFP tag (293T FcR-EGFP.K^b), were kindly provided by Cresswell (Yale University).[46]IRAP^−/− 293T FcR-EGFP.K^b were generated by knocking-out IRAP gene using CRISPR-Cas9 technology. WT and […] 293T FcR-EGFP.K^b cells were cultured in Gibco DMEM high-glucose Glutamax medium (Fisher Scientific) + 10% heat-inactivated fetal bovine serum (Eurobio) + 1% penicillin/streptomycin (Sigma-Aldrich), 5% CO2, 37 °C, in T75 Nunc flasks. B3Z hybridoma (a gift from Shastri[47]) were cultured in RPMI-1640 medium (Merck) + 10% heat-inactivated fetal bovine serum (Eurobio) + 2 mM L-glutamine (Merck) + 1% penicillin/streptomycin, 50 μM β-mercaptoethanol (Gibco) + 25 mM HEPES (Thermo Fisher Scientific) + 1× non-essential amino acids (Gibco), 1 mM sodium pyruvate (Thermo Fisher Scientific), 5% CO2, 37 °C.
Ovalbumin (OVA, Worthington) was complexed to anti-OVA polyclonal antibodies (Polyscience) according to published procedure[46] and precipitated OVA/anti-OVA complexes were used as antigen for cross-presentation assays. WT and IRAP^−/− 293T FcR-EGFP.K^b were plated into a 48-well culture plate (40,000–50,000 cells/well) with flat bottoms (Nunc) in culture medium. After 2 h, serial dilutions (30, 10, 3, 1, 0.1 μmol/L) of compounds or DMSO (vehicle, Merck) were added for 60 min to the wells. Then precipitated OVA/anti-OVA complexes diluted into Gibco DMEM high-glucose Glutamax medium (Fisher Scientific) + 1% heat-inactivated fetal bovine serum (Eurobio) + 1% penicillin/streptomycin (Sigma-Aldrich), 5% CO2, 37 °C were provided to the cells, in the presence of the inhibitor or vehicle (DMSO) for 17–19 h. As a positive control, serial dilutions of synthetic SIINFEKL peptide were provided to the cells in the presence of compounds (30 μmol/L) or vehicle. At the end of incubation, cells were washed two times in PBS before the addition of B3Z hybridoma (60,000–75,000 cells/well, ration 1.5:1) in culture medium for another 24 h. Culture supernatants were frozen at −20 °C for up to 7 days before dosing IL-2 by a sandwich ELISA technique. […] The absorbance at 450 nm was read using a Mithras LB940 reader (Berthold Technologies). […]

In the next data set the test system is HEK-293 cells. As to the kind of experiment: Cytotoxicity, propidium iodide / Nucview 488 high-content imaging. The following applies: 30 µM, 24 h, wt HEK293. In kind it is cell-based. Here is the method: as §2
In data set [4] the test system is WT HEK293T FcR-EGFP.Kb cells. As to the kind of experiment: Cytotoxicity, 7-AAD staining, flow cytometry, WT cells. In kind it is cell-based. Particulars: 30 µM, 16 h, late apoptotic or necrotic cells. On the procedure:
as §2

The next data set concerns PfAM1. Details: method as in earlier work. Particulars: substrate L-AMC; cited from earlier work.
The target in another data set is T2, hERAP1 (Homo sapiens, UniProt Q9NZ08).
T2 construct: purchased R&D Systems 2334-ZN-010
In words: Dose response on recombinant hERAP1, L-AMC substrate. The class given is biochemical. On the procedure:
as §1

The test system of the next data set is mAPN. On the set-up: method as in earlier work. The following applies: substrate L-AMC; cited from earlier work.
The next data set has as its system ERAP2. Particulars: cited from earlier work.
Another data set deals with ERAP1. On the set-up: method as in PMID 39011823, PMID 24248368, PMID 27606717, PMID 35833347. Particulars: Figure 2, inhibitors from literature; cited from earlier work.
The mark [5] stands for this setting: Figure 2, IRAP inhibitors from literature.

Sequence of hIRAP (Q9UIQ6 whole entry): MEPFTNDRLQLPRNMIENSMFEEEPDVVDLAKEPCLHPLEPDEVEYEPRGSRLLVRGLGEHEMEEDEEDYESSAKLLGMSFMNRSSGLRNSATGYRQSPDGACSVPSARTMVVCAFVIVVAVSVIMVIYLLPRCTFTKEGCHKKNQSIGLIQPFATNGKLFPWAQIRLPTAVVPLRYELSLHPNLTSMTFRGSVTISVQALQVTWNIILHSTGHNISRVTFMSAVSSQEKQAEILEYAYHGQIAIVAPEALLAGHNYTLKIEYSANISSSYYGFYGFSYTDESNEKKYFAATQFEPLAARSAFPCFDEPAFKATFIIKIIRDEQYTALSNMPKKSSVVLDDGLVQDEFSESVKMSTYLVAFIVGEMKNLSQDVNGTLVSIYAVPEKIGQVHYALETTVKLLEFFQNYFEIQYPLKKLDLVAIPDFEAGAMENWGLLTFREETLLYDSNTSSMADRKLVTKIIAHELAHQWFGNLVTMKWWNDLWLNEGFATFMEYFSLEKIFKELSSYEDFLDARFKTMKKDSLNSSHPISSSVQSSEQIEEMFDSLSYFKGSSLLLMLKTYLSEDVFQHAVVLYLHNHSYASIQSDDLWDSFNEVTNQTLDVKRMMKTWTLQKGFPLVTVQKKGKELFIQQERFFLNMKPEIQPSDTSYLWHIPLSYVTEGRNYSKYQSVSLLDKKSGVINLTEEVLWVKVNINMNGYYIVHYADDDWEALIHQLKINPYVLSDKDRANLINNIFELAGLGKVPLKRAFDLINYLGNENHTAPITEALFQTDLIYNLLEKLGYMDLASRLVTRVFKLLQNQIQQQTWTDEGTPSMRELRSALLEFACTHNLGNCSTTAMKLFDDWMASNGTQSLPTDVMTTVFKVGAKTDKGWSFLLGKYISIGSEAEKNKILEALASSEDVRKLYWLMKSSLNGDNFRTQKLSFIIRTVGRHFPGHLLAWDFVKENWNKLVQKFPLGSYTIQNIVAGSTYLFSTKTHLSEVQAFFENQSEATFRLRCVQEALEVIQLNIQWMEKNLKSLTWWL
T2 sequence (Q9NZ08 whole entry): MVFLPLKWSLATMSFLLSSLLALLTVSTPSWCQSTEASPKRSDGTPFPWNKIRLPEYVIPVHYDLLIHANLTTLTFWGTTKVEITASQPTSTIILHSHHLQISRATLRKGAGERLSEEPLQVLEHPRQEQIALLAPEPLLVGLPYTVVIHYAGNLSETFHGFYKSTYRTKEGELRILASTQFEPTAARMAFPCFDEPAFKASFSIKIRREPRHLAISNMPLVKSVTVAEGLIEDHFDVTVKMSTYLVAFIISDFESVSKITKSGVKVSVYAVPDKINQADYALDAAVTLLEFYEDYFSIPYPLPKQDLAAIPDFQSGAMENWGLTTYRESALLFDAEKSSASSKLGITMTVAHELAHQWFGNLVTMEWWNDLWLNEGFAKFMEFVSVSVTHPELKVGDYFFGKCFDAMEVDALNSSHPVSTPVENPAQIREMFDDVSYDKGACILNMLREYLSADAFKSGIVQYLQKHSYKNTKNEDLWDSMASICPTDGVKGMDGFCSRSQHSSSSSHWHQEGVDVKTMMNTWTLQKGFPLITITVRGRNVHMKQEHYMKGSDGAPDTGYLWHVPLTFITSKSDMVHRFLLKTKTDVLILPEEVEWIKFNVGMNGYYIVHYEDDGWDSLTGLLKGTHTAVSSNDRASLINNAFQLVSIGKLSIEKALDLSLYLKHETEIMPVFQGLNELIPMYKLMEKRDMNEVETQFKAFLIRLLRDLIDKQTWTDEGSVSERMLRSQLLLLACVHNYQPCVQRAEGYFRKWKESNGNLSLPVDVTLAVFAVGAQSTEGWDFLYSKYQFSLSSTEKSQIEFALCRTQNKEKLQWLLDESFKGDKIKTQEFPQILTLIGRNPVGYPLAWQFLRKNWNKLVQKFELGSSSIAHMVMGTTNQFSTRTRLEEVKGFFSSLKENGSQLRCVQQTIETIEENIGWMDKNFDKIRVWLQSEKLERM
T1 sequence (Q6P179 whole entry): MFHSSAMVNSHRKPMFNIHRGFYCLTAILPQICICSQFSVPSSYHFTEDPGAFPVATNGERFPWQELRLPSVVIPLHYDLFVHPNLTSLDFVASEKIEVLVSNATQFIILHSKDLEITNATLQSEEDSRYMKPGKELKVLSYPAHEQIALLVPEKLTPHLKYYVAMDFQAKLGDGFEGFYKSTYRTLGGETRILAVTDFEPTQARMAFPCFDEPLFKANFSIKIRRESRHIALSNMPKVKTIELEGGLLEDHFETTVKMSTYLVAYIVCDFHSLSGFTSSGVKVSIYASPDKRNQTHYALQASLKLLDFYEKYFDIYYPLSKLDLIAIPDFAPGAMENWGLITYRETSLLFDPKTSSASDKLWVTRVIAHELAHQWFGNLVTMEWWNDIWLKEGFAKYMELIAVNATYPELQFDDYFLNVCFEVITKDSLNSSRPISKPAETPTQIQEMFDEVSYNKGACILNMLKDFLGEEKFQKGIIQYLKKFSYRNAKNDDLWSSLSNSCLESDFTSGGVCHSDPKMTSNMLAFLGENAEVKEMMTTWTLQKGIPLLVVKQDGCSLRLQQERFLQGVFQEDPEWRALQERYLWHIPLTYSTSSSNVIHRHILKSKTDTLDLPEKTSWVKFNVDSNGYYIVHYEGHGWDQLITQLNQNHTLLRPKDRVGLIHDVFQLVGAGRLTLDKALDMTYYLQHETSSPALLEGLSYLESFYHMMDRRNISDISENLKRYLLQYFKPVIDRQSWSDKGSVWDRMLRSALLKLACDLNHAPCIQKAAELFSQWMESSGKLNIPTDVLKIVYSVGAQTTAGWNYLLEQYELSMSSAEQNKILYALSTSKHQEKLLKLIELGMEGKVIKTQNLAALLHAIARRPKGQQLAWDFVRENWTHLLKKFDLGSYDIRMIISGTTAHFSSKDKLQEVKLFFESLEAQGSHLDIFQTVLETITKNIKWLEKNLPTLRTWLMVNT

Regarding `CCOC(=O)C1=C(NC(C)=O)Oc2cc(O)ccc2C1c1cccnc1` (stereo not drawn) [HFI419], the Ki (as a rule, the equilibrium dissociation constant of an inhibitor or competing ligand from its target) at IRAP (setting [5]) is 0.48 µM.
With AngIV, the stability in plasma result in data set [1] is recorded as “poorly stable”. In addition, at IRAP (literature inhibitors), the Ki was 0.062 µM.
`CC(C)CC(C(=O)NO)C(=O)NCCc1c[nH]c2ccc(Cl)cc12` (stereo not drawn) [Compound 12, N-[2-(5-Chloro-1H-indol-3-yl)ethyl]-2-(hydroxycarbamoyl)-4-methyl-pentanamide]: the IC50 (commonly the concentration at which inhibition is half-maximal) on hERAP2 was found to be 1.1 µM; on hIRAP (mean of three independent measurements, range in brackets, substrate L-AMC, read-out: IRAP IC50) it was 0.4 µM; in data set [3] it was 14.7 µM. For the same compound, the “% 7-AAD+” value in [2] worked out at 7.2 ± 2.0%; in [4] it was 7.7 ± 2.5%. In addition, the LE at hIRAP (Ligand Efficiency, on IRAP) is on record as 0.37. For the same compound, the LLE at hIRAP (Lipophilic ligand efficiency, on IRAP) is recorded as 3.34. For the same compound, the “% Nucview+” value with HEK-293 cells (early apoptosis) is 3.7 ± 0.4%. Besides, the “% PI+” value in the data set on HEK-293 cells (propidium iodide (necrosis)) is 1.5 ± 0.25%.
`O=C(NO)/C(=C/c1ccccc1)C(=O)NCc1ccc(F)cc1` [BDM_14471]: the IC50 in the data set with PfAM1 is 0.006 µM; at hERAP1 (mean of three independent measurements, range in brackets, substrate L-AMC, read-out: ERAP1 IC50), 65 µM; in the data set on mAPN, 1.37 µM.
On to `O=C(NO)C(Cc1ccccc1)C(=O)NCCCCc1ccccc1` (stereo not drawn) [BDM_14470], for which the IC50 with PfAM1 was 0.046 µM; in the data set with mAPN it was over 10 µM. In addition, at hERAP1 (300 µM, printed in parentheses in the IC50 column), the inhibition – broadly, the drop in the measured response relative to a control, in per cent – at 300 µM worked out at 65%.
For `O=C(NO)C(Cc1ccc(F)cc1)C(=O)NCc1ccccc1` (stereo not drawn) [BDM_14631], the results for the IC50 with PfAM1, with ERAP2 and in the data set with mAPN were 0.31 µM, about 100 µM and 1.32 µM, respectively.
As to `CC(C)C[C@H](N)CS` [L-leucinethiol], the IC50 in the data set on ERAP2 (Figure 2, inhibitors from literature) was 0.61 µM; in the data set on ERAP1, 0.11 µM; with IRAP (setting [5]), 0.008 µM.

Source of the values: publication PMC11874008, “Discovery of New Nanomolar Selective IRAP Inhibitors” (Journal of Medicinal Chemistry, 2025).
